Patent US12428422B2, “Purine derivatives as SIK-3 inhibitors” (RHIZEN PHARMACEUTICALS AG, priority 2020, dated 2025)

Tests used:
SIK3 (human) = SIK3 (human) (Homo sapiens, UniProt Q9Y2K2); test: Enzymatic radiometric assay against human salt-inducible kinase-3 (SIK3); type: biochemical; conditions: at a concentration of 1 μM; read-out: inhibition of SIK-3 activity
Experimental: Assay 1: Determination of IC50 of Compound M1 Against Human Salt-Inducible Kinase-3 (SIK3) Using an Enzymatic Radiometric Assay
• SIK3 (human) was incubated with 8 mM MOPS pH 7.0, 0.2 mM EDTA, 100 uM of the peptide […] (Substrate), 10 mM Mg Acetate and [gamma-33P-ATP] (specific activity and concentration as required) in the presence of Compound M1. • The reaction was initiated by the addition of the Mg/ATP mix. • After incubation for 40 minutes at room temperature, the reaction was stopped by the addition of phosphoric acid to a concentration of 0.5%. • 10 μL of the reaction mixture was then spotted onto a P30 filtermat and washed four times for 4 minutes in 0.425% phosphoric acid and once in methanol prior to drying and scintillation counting. • The IC50 value was calculated using GraphPad Prism.

6 isoform of PI3K = 6 isoform of PI3K (Homo sapiens, UniProt O00329); conditions: background statement; cited from earlier work
y isoform of PI3K = y isoform of PI3K (Homo sapiens, UniProt P48736); conditions: background statement; cited from earlier work
[1] = Pharmacokinetic evaluation of patient plasma samples from a human clinical trial; type: in vivo; conditions: metabolite is Compound M1

SIK3 (human), sequence (Q9Y2K2 whole entry): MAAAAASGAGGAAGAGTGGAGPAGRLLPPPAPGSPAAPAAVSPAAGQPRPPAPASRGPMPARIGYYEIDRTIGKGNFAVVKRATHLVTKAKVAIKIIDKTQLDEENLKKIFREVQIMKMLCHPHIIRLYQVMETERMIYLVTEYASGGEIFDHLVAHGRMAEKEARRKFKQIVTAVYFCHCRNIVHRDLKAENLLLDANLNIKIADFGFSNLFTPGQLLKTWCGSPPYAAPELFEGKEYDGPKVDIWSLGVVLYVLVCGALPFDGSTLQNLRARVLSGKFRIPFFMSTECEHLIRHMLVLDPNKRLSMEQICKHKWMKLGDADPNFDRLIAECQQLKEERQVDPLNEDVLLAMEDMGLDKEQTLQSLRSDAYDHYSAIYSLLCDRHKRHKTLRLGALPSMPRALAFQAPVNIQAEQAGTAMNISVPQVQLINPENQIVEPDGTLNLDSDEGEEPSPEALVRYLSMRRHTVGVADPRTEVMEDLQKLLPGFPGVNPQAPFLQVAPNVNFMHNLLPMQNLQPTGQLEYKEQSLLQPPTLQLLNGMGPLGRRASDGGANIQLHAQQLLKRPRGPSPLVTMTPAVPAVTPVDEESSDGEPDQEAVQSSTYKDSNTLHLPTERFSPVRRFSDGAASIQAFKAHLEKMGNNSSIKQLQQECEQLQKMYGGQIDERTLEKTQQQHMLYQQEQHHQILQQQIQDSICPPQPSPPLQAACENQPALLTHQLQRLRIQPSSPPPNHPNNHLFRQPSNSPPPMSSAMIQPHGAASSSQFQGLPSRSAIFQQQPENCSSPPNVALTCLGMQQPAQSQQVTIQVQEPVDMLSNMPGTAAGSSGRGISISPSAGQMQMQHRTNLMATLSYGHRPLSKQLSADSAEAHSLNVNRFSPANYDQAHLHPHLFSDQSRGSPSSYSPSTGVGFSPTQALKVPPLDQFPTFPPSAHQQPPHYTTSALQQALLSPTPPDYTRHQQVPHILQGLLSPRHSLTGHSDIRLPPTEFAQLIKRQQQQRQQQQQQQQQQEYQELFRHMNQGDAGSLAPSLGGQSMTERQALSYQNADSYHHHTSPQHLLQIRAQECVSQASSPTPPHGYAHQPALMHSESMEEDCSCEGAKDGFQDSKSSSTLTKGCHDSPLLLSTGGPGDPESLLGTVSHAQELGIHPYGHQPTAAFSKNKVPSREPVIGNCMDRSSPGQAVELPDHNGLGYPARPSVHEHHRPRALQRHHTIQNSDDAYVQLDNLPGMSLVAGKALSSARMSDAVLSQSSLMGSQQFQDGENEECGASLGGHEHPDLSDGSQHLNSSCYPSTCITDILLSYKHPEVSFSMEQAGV
6 isoform of PI3K, sequence (O00329 whole entry, canonical isoform): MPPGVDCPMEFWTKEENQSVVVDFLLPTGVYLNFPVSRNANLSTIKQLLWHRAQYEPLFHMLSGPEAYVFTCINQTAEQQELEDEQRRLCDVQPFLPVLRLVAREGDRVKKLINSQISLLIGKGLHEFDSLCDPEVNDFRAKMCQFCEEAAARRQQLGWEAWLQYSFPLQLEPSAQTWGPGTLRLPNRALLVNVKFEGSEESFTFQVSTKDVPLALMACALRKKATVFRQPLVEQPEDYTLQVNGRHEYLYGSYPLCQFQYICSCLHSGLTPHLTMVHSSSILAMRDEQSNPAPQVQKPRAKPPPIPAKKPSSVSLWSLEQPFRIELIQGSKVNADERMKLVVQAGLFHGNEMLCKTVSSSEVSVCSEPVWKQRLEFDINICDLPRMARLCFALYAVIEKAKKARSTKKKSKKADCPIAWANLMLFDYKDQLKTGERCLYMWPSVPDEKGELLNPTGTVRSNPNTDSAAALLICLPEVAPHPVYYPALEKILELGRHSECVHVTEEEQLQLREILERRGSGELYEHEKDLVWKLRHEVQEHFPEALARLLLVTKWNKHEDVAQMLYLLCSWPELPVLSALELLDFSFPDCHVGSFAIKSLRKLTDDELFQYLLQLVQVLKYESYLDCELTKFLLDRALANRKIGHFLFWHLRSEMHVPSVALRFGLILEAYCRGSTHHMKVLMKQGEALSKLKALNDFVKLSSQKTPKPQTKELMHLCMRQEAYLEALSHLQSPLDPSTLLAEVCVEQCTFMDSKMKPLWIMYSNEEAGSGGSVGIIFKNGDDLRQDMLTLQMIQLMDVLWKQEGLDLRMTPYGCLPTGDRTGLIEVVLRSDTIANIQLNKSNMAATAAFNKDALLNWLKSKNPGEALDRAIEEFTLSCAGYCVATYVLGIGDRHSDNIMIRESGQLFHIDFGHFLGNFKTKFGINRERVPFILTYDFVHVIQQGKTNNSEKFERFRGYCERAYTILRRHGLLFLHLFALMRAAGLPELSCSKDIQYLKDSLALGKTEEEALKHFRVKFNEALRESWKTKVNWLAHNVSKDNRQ
6 isoform of PI3K, sequence (P27986 whole entry partner, canonical isoform): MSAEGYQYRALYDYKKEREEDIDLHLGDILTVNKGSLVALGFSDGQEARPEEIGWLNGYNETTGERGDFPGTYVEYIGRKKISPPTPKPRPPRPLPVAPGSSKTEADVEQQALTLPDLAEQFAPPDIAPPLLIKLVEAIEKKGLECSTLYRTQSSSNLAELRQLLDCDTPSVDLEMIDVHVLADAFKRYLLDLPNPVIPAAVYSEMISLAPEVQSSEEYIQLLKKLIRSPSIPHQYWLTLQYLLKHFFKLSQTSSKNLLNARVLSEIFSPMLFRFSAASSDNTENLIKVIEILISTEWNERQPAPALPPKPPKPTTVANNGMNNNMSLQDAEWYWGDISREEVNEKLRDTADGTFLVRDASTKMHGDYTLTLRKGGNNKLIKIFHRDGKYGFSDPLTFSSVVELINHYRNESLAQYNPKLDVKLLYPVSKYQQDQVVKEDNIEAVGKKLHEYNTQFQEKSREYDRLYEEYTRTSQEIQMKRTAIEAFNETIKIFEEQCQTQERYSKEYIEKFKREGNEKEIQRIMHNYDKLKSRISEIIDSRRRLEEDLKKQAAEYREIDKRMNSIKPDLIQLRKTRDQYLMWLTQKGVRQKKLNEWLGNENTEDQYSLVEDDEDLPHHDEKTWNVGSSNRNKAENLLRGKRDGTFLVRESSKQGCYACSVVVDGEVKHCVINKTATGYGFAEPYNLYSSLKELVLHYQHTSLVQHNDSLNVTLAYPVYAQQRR
y isoform of PI3K, sequence (P48736 whole entry, canonical isoform): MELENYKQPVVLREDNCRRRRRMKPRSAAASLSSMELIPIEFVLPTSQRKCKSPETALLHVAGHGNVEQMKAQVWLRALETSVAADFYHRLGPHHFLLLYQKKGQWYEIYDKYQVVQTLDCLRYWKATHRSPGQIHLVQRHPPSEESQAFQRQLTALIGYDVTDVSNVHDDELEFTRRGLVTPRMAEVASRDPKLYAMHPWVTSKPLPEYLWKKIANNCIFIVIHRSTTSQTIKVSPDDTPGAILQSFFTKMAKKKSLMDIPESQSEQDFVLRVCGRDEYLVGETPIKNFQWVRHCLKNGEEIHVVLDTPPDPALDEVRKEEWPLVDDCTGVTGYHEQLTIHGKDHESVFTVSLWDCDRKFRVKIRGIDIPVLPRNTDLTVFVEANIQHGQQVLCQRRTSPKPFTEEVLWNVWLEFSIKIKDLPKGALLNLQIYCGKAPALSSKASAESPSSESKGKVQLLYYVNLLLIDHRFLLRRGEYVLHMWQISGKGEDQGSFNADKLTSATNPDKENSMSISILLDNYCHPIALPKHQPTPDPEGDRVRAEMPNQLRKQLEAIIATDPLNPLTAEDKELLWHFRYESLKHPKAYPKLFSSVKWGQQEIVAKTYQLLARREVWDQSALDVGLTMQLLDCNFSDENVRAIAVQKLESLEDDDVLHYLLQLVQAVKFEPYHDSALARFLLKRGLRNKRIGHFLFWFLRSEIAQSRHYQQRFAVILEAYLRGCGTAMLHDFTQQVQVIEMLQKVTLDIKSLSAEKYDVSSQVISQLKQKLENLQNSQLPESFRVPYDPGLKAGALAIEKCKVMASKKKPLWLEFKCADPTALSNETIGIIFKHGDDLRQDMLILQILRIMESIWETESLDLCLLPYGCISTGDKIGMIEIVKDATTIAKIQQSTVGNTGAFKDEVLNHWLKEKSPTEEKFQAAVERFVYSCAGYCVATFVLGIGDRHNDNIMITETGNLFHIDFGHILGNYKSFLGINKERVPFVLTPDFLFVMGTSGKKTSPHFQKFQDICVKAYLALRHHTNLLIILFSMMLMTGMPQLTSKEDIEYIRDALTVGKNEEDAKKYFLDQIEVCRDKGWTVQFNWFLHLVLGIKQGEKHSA

inhibition at 1 µM (SIK3 (human))	SMILES	potency against the 6 isoform of PI3K (6 isoform of PI3K)	potency against the 7 isoform of PI3K (y isoform of PI3K)	metabolism in patients (metabolite formation) [1]
100%	CC[C@@H](Nc1ncnc2[nH]c(O)nc12)c1oc2ccccc2c(=O)c1-c1cccc(F)c1 [Compound M2, (R)-3-(3-fluorophenyl)-2-(1-((8-hydroxy-9H-purin-6-yl)amino)propyl)-4H-chromen-4-one]			
	CC[C@H](Nc1ncnc2nc[nH]c12)c1oc2ccccc2c(=O)c1-c1cccc(F)c1 [Tenalisib, 3-(3-fluorophenyl)-2-[(1S)-1-(7H-purin-6-ylamino)propyl]-chromen-4-one]	nanomolar potency	nanomolar potency	underwent metabolism to produce in some subjects
